Data reported in ChEMBL document CHEMBL1127815, “Homodimeric and heterodimeric bis(amino thiol) oxometal complexes with rhenium(V) and technetium(V). Control of heterodimeric complex formation and an approach to metal complexes that mimic steroid hormones” (J Med Chem, 1994).

Key:
Rattus norvegicus [1] = assay: Biodistribution in Sprague-Darwley rat fat at 15 min after intravenous administration of 70g; type: ADME, organism-based, Adipose tissue; details: in vivo, 0.25 h
Rattus norvegicus [2] = assay: Biodistribution in Sprague-Darwley rat blood at 15 min after intravenous administration of 70g; type: ADME, organism-based; details: in vivo, 0.25 h
Rattus norvegicus [3] = assay: Biodistribution in Sprague-Darwley rat liver at 120 min after intravenous administration of 70g; type: ADME, organism-based; details: in vivo, 2 h
Rattus norvegicus [4] = assay: Biodistribution in Sprague-Darwley rat liver at 15 min after intravenous administration of 70g; type: ADME, organism-based; details: in vivo, 0.25 h
Rattus norvegicus [5] = assay: Biodistribution in Sprague-Darwley rat rest of brain at 120 min after intravenous administration of 70g; type: ADME, organism-based; details: in vivo, 2 h
Rattus norvegicus [6] = assay: Biodistribution in Sprague-Darwley rat heart at 2 min after intravenous administration of 70g; type: ADME, organism-based; details: in vivo
Rattus norvegicus [7] = assay: Biodistribution in Sprague-Darwley rat liver at 2 min after intravenous administration of 70g; type: ADME, organism-based; details: in vivo
Rattus norvegicus [8] = assay: Biodistribution in Sprague-Darwley rat muscle at 30 min after intravenous administration of 70g; type: ADME, organism-based, Muscle tissue; details: in vivo, 0.5 h
Rattus norvegicus [9] = assay: Biodistribution in Sprague-Darwley rat rest of brain at 60 min after intravenous administration of 70g; type: ADME, organism-based; details: in vivo, 1 h
Rattus norvegicus [10] = assay: Biodistribution in Sprague-Darwley rat muscle at 120 min after intravenous administration of 70g; type: ADME, organism-based, Muscle tissue; details: in vivo, 2 h
Rattus norvegicus [11] = assay: Biodistribution in Sprague-Darwley rat muscle at 60 min after intravenous administration of 70g; type: ADME, organism-based, Muscle tissue; details: in vivo, 1 h
Rattus norvegicus [12] = assay: Biodistribution in Sprague-Darwley rat lung at 120 min after intravenous administration of 70g; type: ADME, organism-based; details: in vivo, 2 h
Rattus norvegicus [13] = assay: Biodistribution in Sprague-Darwley rat lung at 60 min after intravenous administration of 70g; type: ADME, organism-based; details: in vivo, 1 h
Rattus norvegicus [14] = assay: Biodistribution in Sprague-Darwley rat fat at 2 min after intravenous administration of 70g; type: ADME, organism-based, Adipose tissue; details: in vivo
Rattus norvegicus [15] = assay: Biodistribution in Sprague-Darwley rat liver at 60 min after intravenous administration of 70g; type: ADME, organism-based; details: in vivo, 1 h
Rattus norvegicus [16] = assay: Biodistribution in Sprague-Darwley rat heart at 15 min after intravenous administration of 70g; type: ADME, organism-based; details: in vivo, 0.25 h
Rattus norvegicus [17] = assay: Biodistribution in Sprague-Darwley rat fat at 120 min after intravenous administration of 70g; type: ADME, organism-based, Adipose tissue; details: in vivo, 2 h
Rattus norvegicus [18] = assay: Biodistribution in Sprague-Darwley rat kidney at 15 min after intravenous administration of 70g; type: ADME, organism-based; details: in vivo, 0.25 h
Rattus norvegicus [19] = assay: Biodistribution in Sprague-Darwley rat liver at 30 min after intravenous administration of 70g; type: ADME, organism-based; details: in vivo, 0.5 h
Rattus norvegicus [20] = assay: Biodistribution in Sprague-Darwley rat fat at 60 min after intravenous administration of 70g; type: ADME, organism-based, Adipose tissue; details: in vivo, 1 h
Rattus norvegicus [21] = assay: Biodistribution in Sprague-Darwley rat muscle at 15 min after intravenous administration of 70g; type: ADME, organism-based, Muscle tissue; details: in vivo, 0.25 h
Rattus norvegicus [22] = assay: Biodistribution in Sprague-Darwley rat blood at 30 min after intravenous administration of 70g; type: ADME, organism-based; details: in vivo, 0.5 h
Rattus norvegicus [23] = assay: Biodistribution in Sprague-Darwley rat lung at 2 min after intravenous administration of 70g; type: ADME, organism-based; details: in vivo
Rattus norvegicus [24] = assay: Biodistribution in Sprague-Darwley rat blood at 120 min after intravenous administration of 70g; type: ADME, organism-based; details: in vivo, 2 h
Rattus norvegicus [25] = assay: Biodistribution in Sprague-Darwley rat kidney at 120 min after intravenous administration of 70g; type: ADME, organism-based; details: in vivo, 2 h
Rattus norvegicus [26] = assay: Biodistribution in Sprague-Darwley rat heart at 30 min after intravenous administration of 70g; type: ADME, organism-based; details: in vivo, 0.5 h
Rattus norvegicus [27] = assay: Biodistribution in Sprague-Darwley rat blood at 2 min after intravenous administration of 70g; type: ADME, organism-based; details: in vivo
Rattus norvegicus [28] = assay: Biodistribution in Sprague-Darwley rat heart at 60 min after intravenous administration of 70g; type: ADME, organism-based; details: in vivo, 1 h
Rattus norvegicus [29] = assay: Biodistribution in Sprague-Darwley rat blood at 60 min after intravenous administration of 70g; type: ADME, organism-based; details: in vivo, 1 h
Rattus norvegicus [30] = assay: Biodistribution in Sprague-Darwley rat kidney at 2 min after intravenous administration of 70g; type: ADME, organism-based; details: in vivo
Rattus norvegicus [31] = assay: Biodistribution in Sprague-Darwley rat fat at 30 min after intravenous administration of 70g; type: ADME, organism-based, Adipose tissue; details: in vivo, 0.5 h
Rattus norvegicus [32] = assay: Biodistribution in Sprague-Darwley rat kidney at 60 min after intravenous administration of 70g; type: ADME, organism-based; details: in vivo, 1 h
Rattus norvegicus [33] = assay: Biodistribution in Sprague-Darwley rat rest of brain at 2 min after intravenous administration of 70g; type: ADME, organism-based; details: in vivo
Rattus norvegicus [34] = assay: Biodistribution in Sprague-Darwley rat lung at 15 min after intravenous administration of 70g; type: ADME, organism-based; details: in vivo, 0.25 h
Rattus norvegicus [35] = assay: Biodistribution in Sprague-Darwley rat lung at 30 min after intravenous administration of 70g; type: ADME, organism-based; details: in vivo, 0.5 h
Rattus norvegicus [36] = assay: Biodistribution in Sprague-Darwley rat rest of brain at 15 min after intravenous administration of 70g; type: ADME, organism-based; details: in vivo, 0.25 h
Rattus norvegicus [37] = assay: Biodistribution in Sprague-Darwley rat muscle at 2 min after intravenous administration of 70g; type: ADME, organism-based, Muscle tissue; details: in vivo
Rattus norvegicus [38] = assay: Biodistribution in Sprague-Darwley rat rest of brain at 30 min after intravenous administration of 70g; type: ADME, organism-based; details: in vivo, 0.5 h
Rattus norvegicus [39] = assay: Biodistribution in Sprague-Darwley rat kidney at 30 min after intravenous administration of 70g; type: ADME, organism-based; details: in vivo, 0.5 h
Rattus norvegicus [40] = assay: Biodistribution in Sprague-Darwley rat heart at 120 min after intravenous administration of 70g; type: ADME, organism-based; details: in vivo, 2 h

ID/g (Rattus norvegicus [1]): 0.511%
ID/g (Rattus norvegicus [2]): 0.316%
ID/g (Rattus norvegicus [3]): 2.892%
ID/g (Rattus norvegicus [4]): 3.69%
ID/g (Rattus norvegicus [5]): 0.128%
ID/g (Rattus norvegicus [6]): 3.285%
ID/g (Rattus norvegicus [7]): 4.121%
ID/g (Rattus norvegicus [8]): 0.255%
ID/g (Rattus norvegicus [9]): 0.185%
ID/g (Rattus norvegicus [10]): 0.107%
ID/g (Rattus norvegicus [11]): 0.167%
ID/g (Rattus norvegicus [12]): 0.224%
ID/g (Rattus norvegicus [13]): 0.344%
ID/g (Rattus norvegicus [14]): 0.241%
ID/g (Rattus norvegicus [15]): 3.309%
ID/g (Rattus norvegicus [16]): 0.721%
ID/g (Rattus norvegicus [17]): 1.128%
ID/g (Rattus norvegicus [18]): 1.291%
ID/g (Rattus norvegicus [19]): 2.987%
ID/g (Rattus norvegicus [20]): 1.071%
ID/g (Rattus norvegicus [21]): 0.379%
ID/g (Rattus norvegicus [22]): 0.213%
ID/g (Rattus norvegicus [23]): 4.24%
ID/g (Rattus norvegicus [24]): 0.192%
ID/g (Rattus norvegicus [25]): 1.779%
ID/g (Rattus norvegicus [26]): 0.386%
ID/g (Rattus norvegicus [27]): 0.681%
ID/g (Rattus norvegicus [28]): 0.305%
ID/g (Rattus norvegicus [29]): 0.202%
ID/g (Rattus norvegicus [30]): 3.117%
ID/g (Rattus norvegicus [31]): 0.297%
ID/g (Rattus norvegicus [32]): 1.281%
ID/g (Rattus norvegicus [33]): 1.346%
ID/g (Rattus norvegicus [34]): 0.83%
ID/g (Rattus norvegicus [35]): 0.434%
ID/g (Rattus norvegicus [36]): 0.63%
ID/g (Rattus norvegicus [37]): 0.364%
ID/g (Rattus norvegicus [38]): 0.283%
ID/g (Rattus norvegicus [39]): 1.075%
ID/g (Rattus norvegicus [40]): 0.151%
Substance: [N-(2-Mercapto-2-methylpropyl)-N-(4-methoxyphenyl)-aminato][2-(mercaptomethyl)pyridinato]oxotechnetium V
